≈ marks a conversion by molar mass, not a printed value. Where “and” joins values, the source holds several entries; their conditions need not be identical. Equal values may be shown once. Blank lines part the entries; values can stand above or below the molecule they belong to.
Columns and labels:
Assay in all cases: ≥ marks a high value that may be exact or a test limit, other limits are often not marked, values filed in µg/mL are converted to µM
[1] = tested on: Escherichia coli ATCC 25922
[2] = tested on: Staphylococcus aureus ATCC 29213
[3] = tested on: Escherichia coli
[4] = tested on: Enterococcus faecalis ATCC 29212
[5] = tested on: Pseudomonas aeruginosa ATCC 27853
[6] = tested on: Staphylococcus epidermidis ATCC 12228
[7] = tested on: Bacillus subtilis
[8] = tested on: Staphylococcus aureus
[9] = tested on: Pseudomonas aeruginosa
[10] = tested on: Candida albicans ATCC 90028
[11] = tested on: Salmonella enterica subsp. enterica serovar Typhimurium ATCC 14028
[12] = tested on: Pseudomonas aeruginosa PAO1

SMILES: CC(C)C[C@H](NC(=O)[C@H](CCCCN)NC(=O)[C@@H]1CSSC[C@H](N)C(=O)N[C@@H](CCCCN)C(=O)N[C@@H](CCCCN)C(=O)N[C@@H](CC(C)C)C(=O)N[C@@H](CC(C)C)C(=O)N[C@@H](CCCCN)C(=O)N[C@@H](CC(C)C)C(=O)N[C@@H](CC(C)C)C(=O)N[C@@H](CCCCN)C(=O)N[C@@H](CCCCN)C(=O)N[C@@H](CC(C)C)C(=O)N1)C(=O)N[C@@H](C)C(=O)NCC(=O)O [CKKLLKLLKKLCKLAG]
MIC [1]: 5 µM (≈ 8.99 µg/mL) | MIC [2]: > 40 µM | MIC [3]: 20 µM (≈ 36 µg/mL)

SMILES: CC[C@H](C)[C@H](NC(=O)CN)C(=O)NCC(=O)N[C@@H](CCCCN)C(=O)N[C@@H](Cc1ccccc1)C(=O)N[C@@H](CC(C)C)C(=O)N[C@@H](Cc1cnc[nH]1)C(=O)N[C@@H](CCCCN)C(=O)N[C@H](C(=O)NCC(=O)N[C@@H](CO)C(=O)N[C@@H](Cc1ccccc1)C(=O)N[C@H](C(=O)N[C@@H](CCCCN)C(=O)N[C@@H](CO)C(=O)N[C@@H](Cc1c[nH]c2ccccc12)C(=O)N[C@@H](CCCCN)C(=O)NCC(=O)N[C@@H](CCC(=O)O)C(=O)N[C@H](C(=O)N[C@@H](CCSC)C(=O)N[C@@H](CC(N)=O)C(=O)N[C@@H](CO)C(N)=O)[C@@H](C)CC)[C@@H](C)CC)C(C)C [GIGKFLHKVGSFIKSWKGEIMNS]
MIC [1]: 5 µM (≈ 12.8 µg/mL) | MIC [5]: 51.3 µM (≈ 131 µg/mL) | MIC [2]: 73 µM (≈ 187 µg/mL)

SMILES: CC[C@H](C)[C@H](NC(=O)CN)C(=O)N[C@@H](CCCCN)C(=O)N[C@@H](CCCCN)C(=O)N[C@@H](Cc1c[nH]c2ccccc12)C(=O)N[C@@H](CC(C)C)C(=O)N[C@@H](Cc1cnc[nH]1)C(=O)N[C@@H](CO)C(=O)N[C@@H](C)C(=O)N[C@@H](CCCCN)C(=O)N[C@@H](CCCCN)C(=O)N1CCC[C@H]1C(=O)N1CCC[C@H]1C(=O)N[C@@H](CCCCN)C(=O)N[C@@H](CCCCN)C(=O)N[C@@H](Cc1ccccc1)C(=O)N[C@H](C(=O)N[C@@H](CCCCN)C(=O)N[C@@H](CCCCN)C(=O)N[C@H](C(=O)N[C@@H](CCSC)C(=O)N[C@@H](CC(N)=O)C(=O)N[C@@H](CO)C(N)=O)[C@@H](C)CC)C(C)C [GIKKWLHSAKKPPKKFVKKIMNS]
MIC [1]: > 80 µM | MIC [6]: 10 µM (≈ 26.9 µg/mL)

SMILES: CC[C@H](C)[C@H](N)C(=O)N[C@H](C(=O)N[C@@H](CO)C(=O)N[C@H](C(=O)N[C@H](C(=O)NCC(=O)N[C@@H](CCCCN)C(=O)N[C@@H](CC(C)C)C(=O)N1CCC[C@H]1C(=O)N[C@@H](CCCCN)C(=O)N[C@@H](Cc1c[nH]c2ccccc12)C(=O)N[C@H](C(=O)N[C@H](C(=O)N[C@@H](CCCCN)C(=O)N[C@H](C(=O)N[C@H](C(=O)N[C@@H](CC(N)=O)C(=O)N[C@@H](CCCCN)C(=O)N[C@@H](Cc1ccccc1)C(=O)N[C@H](C(=O)N[C@@H](CCCCN)C(=O)N[C@@H](CCCCN)C(=O)O)[C@@H](C)O)C(C)C)[C@@H](C)O)[C@@H](C)CC)[C@@H](C)CC)[C@@H](C)CC)[C@@H](C)O)[C@@H](C)CC [IISTIGKLPKWIIKTVNKFTKK]
MIC [8]: 22 µM (≈ 56.3 µg/mL) | MIC [3]: 2.7 µM (≈ 6.9 µg/mL)

SMILES: CC(C)C[C@H](NC(=O)[C@H](C)NC(=O)[C@@H](N)CCCCN)C(=O)N[C@@H](C)C(=O)N[C@@H](C)C(=O)N[C@@H](CC(C)C)C(=O)N[C@@H](CC(C)C)C(=O)N[C@@H](CCCCN)C(=O)N[C@@H](CCCCN)C(=O)N[C@@H](Cc1c[nH]c2ccccc12)C(=O)N[C@@H](C)C(=O)N[C@@H](CCCCN)C(=O)N[C@@H](CC(C)C)C(=O)N[C@@H](CC(C)C)C(=O)N[C@@H](C)C(=O)N[C@@H](C)C(=O)N[C@@H](CC(C)C)C(=O)N[C@@H](CCCCN)C(N)=O [KALAALLKKWAKLLAALK]
MIC [9]: 5.8 µM (≈ 11.3 µg/mL) | MIC [8]: 3 µM (≈ 5.85 µg/mL) | MIC [3]: 4.1 µM (≈ 8 µg/mL)

SMILES: CC(C)C[C@H](NC(=O)[C@H](C)NC(=O)[C@H](CCCCN)NC(=O)[C@H](CC(C)C)NC(=O)[C@H](CC(C)C)NC(=O)[C@H](Cc1c[nH]c2ccccc12)NC(=O)[C@H](CCCCN)NC(=O)[C@H](CC(C)C)NC(=O)[C@H](C)NC(=O)[C@H](C)NC(=O)[C@H](CCCCN)NC(=O)[C@H](C)NC(=O)[C@H](CC(C)C)NC(=O)[C@H](CC(C)C)NC(=O)[C@@H](N)CCCCN)C(=O)N[C@@H](CCCCN)C(=O)N[C@@H](C)C(=O)N[C@@H](C)C(N)=O [KLLAKAALKWLLKALKAA]
MIC [9]: 12.4 µM (≈ 24.2 µg/mL) | MIC [8]: 1.6 µM (≈ 3.12 µg/mL) | MIC [3]: 6.2 µM (≈ 12.1 µg/mL)

SMILES: CC[C@H](C)[C@H](NC(=O)[C@H](Cc1ccccc1)NC(=O)[C@H](CO)NC(=O)[C@H](CCCCN)NC(=O)[C@H](Cc1c[nH]c2ccccc12)NC(=O)[C@@H](N)CCCCN)C(=O)N[C@@H](CCCCN)C(=O)N[C@@H](CCCCN)C(=O)N[C@@H](CC(C)C)C(=O)N[C@@H](CC(C)C)C(=O)N[C@@H](CO)C(=O)N[C@@H](CCCCN)C(=O)N[C@@H](Cc1ccccc1)C(=O)N[C@@H](CC(C)C)C(=O)N[C@@H](Cc1cnc[nH]1)C(=O)N[C@@H](CO)C(=O)N[C@@H](C)C(=O)N[C@@H](CCCCN)C(=O)N[C@@H](CCCCN)C(=O)N[C@@H](Cc1ccccc1)C(N)=O [KWKSFIKKLLSKFLHSAKKF]
MIC [9]: 5.07 µM (≈ 12.5 µg/mL)

SMILES: CC[C@H](C)[C@H](NC(=O)[C@H](Cc1ccccc1)NC(=O)[C@H](CO)NC(=O)[C@H](CCCCN)NC(=O)[C@H](Cc1c[nH]c2ccccc12)NC(=O)[C@@H](N)CCCCN)C(=O)N[C@@H](CCCCN)C(=O)N[C@@H](CCCCN)C(=O)N[C@@H](CC(C)C)C(=O)N[C@H](C(=O)N[C@@H](CO)C(=O)N[C@@H](CCCCN)C(=O)N[C@@H](Cc1ccccc1)C(=O)N[C@@H](CC(C)C)C(=O)N[C@@H](Cc1cnc[nH]1)C(=O)N[C@@H](CC(C)C)C(=O)N[C@@H](C)C(=O)N[C@@H](CCCCN)C(=O)N[C@@H](CCCCN)C(=O)N[C@@H](Cc1ccccc1)C(N)=O)[C@@H](C)O [KWKSFIKKLTSKFLHLAKKF]
MIC [9]: 5.04 µM (≈ 12.5 µg/mL)

SMILES: CC(C)C[C@H](NC(=O)[C@H](CCCN=C(N)N)NC(=O)[C@@H](N)CCCN=C(N)N)C(=O)N[C@@H](CCCN=C(N)N)C(=O)N1CCC[C@H]1C(=O)N[C@@H](CCCN=C(N)N)C(=O)N[C@@H](CCCN=C(N)N)C(=O)N1CCC[C@H]1C(=O)N[C@@H](CCCN=C(N)N)C(=O)N[C@@H](CC(C)C)C(=O)N1CCC[C@H]1C(=O)N[C@@H](CCCN=C(N)N)C(=O)N1CCC[C@H]1C(=O)N[C@@H](CCCN=C(N)N)C(=O)N1CCC[C@H]1C(=O)N[C@@H](CCCN=C(N)N)C(=O)O [RRLRPRRPRLPRPRPR]
MIC [4]: > 32 µM | MIC [2]: > 32 µM | MIC [12]: 16 µM and 32 µM

SMILES: NC(=O)[C@H](Cc1ccccc1)NC(=O)[C@H](Cc1ccccc1)NC(=O)[C@H](Cc1ccccc1)NC(=O)[C@@H]1CCCN1C(=O)[C@H](CCCN=C(N)N)NC(=O)[C@@H]1CCCN1C(=O)[C@H](CCCN=C(N)N)NC(=O)[C@@H]1CCCN1C(=O)[C@H](CCCN=C(N)N)NC(=O)[C@@H]1CCCN1C(=O)[C@H](CCCN=C(N)N)NC(=O)[C@@H](N)CCCN=C(N)N [RRPRPRPRPFFF]
MIC [1]: 80 µM (≈ 130 µg/mL) | MIC [5]: > 160 µM | MIC [2]: 40 µM (≈ 65.1 µg/mL)

More lines, now with the values ahead:

MIC [1]: 145 µM (≈ 200 µg/mL) | MIC [4]: 145 µM (≈ 200 µg/mL)
SMILES: CSCC[C@H](NC(=O)[C@H](CCCN=C(N)N)NC(=O)[C@H](Cc1c[nH]c2ccccc12)NC(=O)[C@H](CCC(N)=O)NC(=O)[C@H](Cc1c[nH]c2ccccc12)NC(=O)[C@H](CC(C)C)NC(=O)[C@H](CC(C)C)NC(=O)[C@H](C)NC(=O)[C@H](CCCCN)NC(=O)[C@@H](N)Cc1ccccc1)C(=O)O [FKALLWQWRM]

MIC [1]: 70.4 µM (≈ 100 µg/mL) | MIC [4]: 141 µM (≈ 200 µg/mL)
SMILES: CSCC[C@H](NC(=O)[C@H](CCCN=C(N)N)NC(=O)[C@H](Cc1c[nH]c2ccccc12)NC(=O)[C@H](CCC(N)=O)NC(=O)[C@H](Cc1c[nH]c2ccccc12)NC(=O)[C@H](CC(C)C)NC(=O)[C@H](CCCN=C(N)N)NC(=O)[C@H](C)NC(=O)[C@H](CCCCN)NC(=O)[C@@H](N)Cc1ccccc1)C(=O)O [FKARLWQWRM]

MIC [7]: 8.5 µM (≈ 15 µg/mL) | MIC [3]: 13 µM (≈ 22.9 µg/mL)
SMILES: CC[C@H](C)[C@H](N)C(=O)N[C@@H](CC(=O)O)C(=O)N[C@@H](Cc1c[nH]c2ccccc12)C(=O)N[C@@H](CCCCN)C(=O)N[C@@H](CCCCN)C(=O)N[C@H](C(=O)N[C@@H](Cc1ccccc1)C(=O)N[C@@H](CCC(=O)O)C(=O)N[C@@H](CCCCN)C(=O)N[C@H](C(=O)N[C@@H](CCCCN)C(=O)N[C@@H](CC(N)=O)C(=O)N[C@@H](CC(C)C)C(=O)N[C@H](C(N)=O)C(C)C)C(C)C)[C@@H](C)CC [IDWKKIFEKVKNLV]

MIC [1]: 5 µM (≈ 7.57 µg/mL) | MIC [5]: 5 µM (≈ 7.57 µg/mL) | MIC [2]: 20 µM (≈ 30.3 µg/mL) | MIC [10]: 20 µM (≈ 30.3 µg/mL)
SMILES: CC[C@H](C)[C@H](NC(=O)[C@H](CCCN=C(N)N)NC(=O)[C@H](C)NC(=O)[C@@H](NC(=O)[C@@H](NC(=O)[C@H](CCCN=C(N)N)NC(=O)[C@@H](N)CCCCN)[C@@H](C)CC)C(C)C)C(=O)N[C@@H](CCCCN)C(=O)N[C@@H](CC(=O)O)C(=O)N[C@@H](Cc1ccccc1)C(=O)N[C@@H](CC(C)C)C(=O)N[C@@H](CCCN=C(N)N)C(=O)O [KRIVARIKDFLR]

MIC [1]: 12.5 µM (≈ 33.1 µg/mL) | MIC [11]: 25 µM (≈ 66.2 µg/mL) | MIC [4]: 12.5 µM (≈ 33.1 µg/mL)
SMILES: CC[C@H](C)[C@H](NC(=O)[C@H](CCCN=C(N)N)NC(=O)[C@H](C)NC(=O)[C@H](CC(N)=O)NC(=O)[C@H](CCCCN)NC(=O)[C@@H](N)CC(C)C)C(=O)N[C@H](C(=O)NCC(=O)N[C@@H](CCC(=O)O)C(=O)N[C@@H](CC(C)C)C(=O)N[C@H](C(=O)NCC(=O)N[C@@H](Cc1ccccc1)C(=O)N[C@@H](CCCN=C(N)N)C(=O)N1CCC[C@H]1C(=O)N[C@H](C(=O)N[C@@H](CCCN=C(N)N)C(=O)N1CCC[C@H]1C(=O)N[C@@H](CCC(N)=O)C(=O)N[C@H](C(=O)N[C@@H](CCCN=C(N)N)C(=O)N[C@@H](CC(C)C)C(=O)N[C@@H](CCC(=O)O)C(=O)O)C(C)C)C(C)C)[C@@H](C)O)C(C)C [LKNARIVGELTGFRPVRPQVRLE]
